Measurements taken from the NIST ThermoML archive (doi:10.1021/acs.jced.7b00650).

Settings: Liquid; for viscosity: Capillary tube (Ostwald / Ubbelohde) method; for mass density: Vibrating tube method

CCCCCCCC [octane]
Settings | mass density [kg/m3] | viscosity [mPa·s]
293.21 K, 1996 kPa | 703.76 | 0.5512
293.21 K, 8004 kPa | 709.25 | 0.5874
293.21 K, 13010 kPa | 713.21 | 0.6183
293.21 K, 30002 kPa | 725.54 | 0.7285
293.22 K, 3994 kPa | 705.71 | 0.5631
293.22 K, 6001 kPa | 707.57 | 0.5752
293.22 K, 10009 kPa | 710.88 | 0.5997
293.22 K, 16009 kPa | 715.43 | 0.6371
293.22 K, 19011 kPa | 717.57 | 0.6566
293.22 K, 22012 kPa | 719.76 | 0.6759
293.22 K, 25004 kPa | 721.88 | 0.6954
293.22 K, 28004 kPa | 724.19 | 0.7152
313.1 K, 5999 kPa | 692.07 | 0.4593
313.1 K, 19006 kPa | 703.5 | 0.5234
313.1 K, 21998 kPa | 706.05 | 0.5385
313.1 K, 25000 kPa | 708.39 | 0.5539
313.1 K, 27998 kPa | 710.67 | 0.5694
313.1 K, 30001 kPa | 712.15 | 0.5798
313.11 K, 2007 kPa | 688.27 | 0.4402
313.11 K, 4000 kPa | 690.26 | 0.4497
313.11 K, 7997 kPa | 693.85 | 0.469
313.11 K, 10009 kPa | 695.59 | 0.4788
313.11 K, 13005 kPa | 698.26 | 0.4935
313.11 K, 16009 kPa | 700.84 | 0.5083
333 K, 22003 kPa | 691.91 | 0.4414
333.01 K, 2005 kPa | 672.19 | 0.3601
333.01 K, 3993 kPa | 674.49 | 0.3681
333.01 K, 5998 kPa | 676.69 | 0.3761
333.01 K, 8014 kPa | 678.82 | 0.3841
333.01 K, 10007 kPa | 680.8 | 0.3921
333.01 K, 13004 kPa | 683.6 | 0.4043
333.01 K, 16002 kPa | 686.47 | 0.4166
333.01 K, 19006 kPa | 689.24 | 0.4289
333.01 K, 25006 kPa | 694.49 | 0.4539
333.01 K, 28003 kPa | 696.99 | 0.4666
333.01 K, 30012 kPa | 698.61 | 0.4751
353.12 K, 2008 kPa | 655.38 | 0.2974
353.12 K, 3999 kPa | 657.99 | 0.3043
353.12 K, 6000 kPa | 660.5 | 0.3112
353.12 K, 8001 kPa | 663.11 | 0.3181
353.12 K, 10006 kPa | 665.45 | 0.325
353.12 K, 19000 kPa | 674.99 | 0.3563
353.12 K, 22003 kPa | 677.96 | 0.3669
353.12 K, 25005 kPa | 680.81 | 0.3775
353.12 K, 28008 kPa | 683.56 | 0.3882
353.12 K, 30004 kPa | 685.34 | 0.3954
353.13 K, 13003 kPa | 668.83 | 0.3354
353.13 K, 16004 kPa | 672.05 | 0.3458
